Data from patent publication US6465447B1, “Substance having steroid-like structure, process for the production thereof and antitumor agents containing the same” (Hisamitsu Pharmaceuticals Co., Inc., priority 1998, dated 2002).

Tests used:
[1] = test system: HeLa cells; assay: Tumor cell proliferation inhibitory activity, Alarmer Blue staining, HeLa cells; assay type: cell-based, human; details: conclusion from FIGS. 4-6 (Vero, HeLa, fibroblasts)
Method: Here, Vero was […] derived from the kidney of a grivet, and HeLa was a tumor cell line derived from human cervix.
These cells were grown in FCS-MRM medium. The respective cells were trypsinized and washed with a FCS-free RPMI culture medium three times. The cell density was adjusted to 50,000 cells/ml prior to the test. Each 200 μl of cell suspension was dropped into a 96-well plain-bottom plate.
After one day, the culture medium was aspirated; and 200 μl of an active component solution was dropped into test wells, and 200 μl of DMSO dropped into control wells. The plate was incubated in a 5% CO2 atmosphere at 37° C. for 3 days. Ten μl of Alarmer Blue (staining agent) was added to each well, and incubation continued for additional 3 hrs. The tumor cell proliferation inhibitory activity was determined spectrophotometrically (570 and 600 nm) according to the following equation:
Eq. Proliferation inhibitory activity=100%−[(absorbance of test well)/(absorbance of control well)×100%]

[2] = test system: HeLa cells; assay: DNA cleavage examined against HeLa cells (chromatin aggregation, agarose gel electrophoresis); assay type: cell-based, human; details: conclusion from FIGS. 7-9
Method: HeLa cells were prepared, adjusted to a cell density of 1×10^6 cells/ml in a φ10 cm culture dish and grown, into which 200 μl of the active fraction solution was dropped. Cells were harvested each 50 μl after 24, 48, and 72 hrs, and incubated in 400 μl of culture solution (containing Tris-EDTA, SDS and Proteinase K) in a 5% CO2 atmosphere at 37° C. overnight. NaCl was added to the cells and decomposed proteins were centrifuged; and the supernatant was precipitated in ethanol.
The precipitate was suspended in Tris-EDTA buffer containing RnaseA. After 2 hrs, it was loaded onto agarose gel. After staining with ethidium bromide, it was electrophoresed and visualized under UV irradiation.

## CC(=O)OC1CC2(C)C(C(C)/C=C/C(C)C(C)C)CCC2(C)C2CC(O)C3(O)CC(O)CC(=O)C3(C)C12 (centres unmarked) [compound (II)]
[1]
  proliferation inhibitory activity specific to tumor cells (overall conclusion): remarkable proliferation inhibitory activity specific to tumor cells
[2]
  induction of apoptosis in the tumor cells: induces apotosis
